Measured values: patent publication US8501811B2, “TASPASE1 inhibitors and their uses” (Washington University, priority 2010, dated 2013)
Entries after “also recorded” stand apart in the source; their conditions may differ. Residues, ends and D or L forms follow the SMILES beside them. *: point of attachment. DNP = 2,4-dinitrophenyl quenching group; X1 = CS(=O)(=O)/C=C/[C@H](CC(=O)O)N*; MCA = fluorogenic coumarin group

Legend:
Taspase1 = target: T1, Taspase1 (Homo sapiens, UniProt Q9H6P5); assay: FRET-based Taspase1 proteolytic reporter (FRPR) assay; assay type: biochemical; settings: for EC50: Maybridge library screen, dose-response
T1 sequence (Q9H6P5 1-233 limits assumed): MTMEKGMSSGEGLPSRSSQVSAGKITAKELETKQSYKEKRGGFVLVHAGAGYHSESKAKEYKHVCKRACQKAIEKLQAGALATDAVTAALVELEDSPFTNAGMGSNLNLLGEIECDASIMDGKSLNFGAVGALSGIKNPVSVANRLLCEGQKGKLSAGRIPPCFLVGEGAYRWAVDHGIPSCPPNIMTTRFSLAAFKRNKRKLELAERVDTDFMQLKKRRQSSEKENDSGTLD

[1] = target: T2, recombinant Taspase1 (rTaspase1) (Homo sapiens, UniProt Q9H6P5); assay: Taspase1-MLL in vitro cleavage assay (IVTT 35S methionine labeled p75MLL reporter, SDS-PAGE, autoradiography); assay type: biochemical; settings: for Inhibition of Taspase1-mediated p75MLL cleavage (in words): indicated concentrations, 30 minutes pretreatment; for IC50: rTaspase1 pretreated 30 minutes at room temperature, then p75MLL reporter 30 minutes at 30° C., read-out: IC50 of Taspase1 inhibition (p75MLL cleavage); for Effect of increasing pretreatment time on Taspase1 inhibition: 5 μM, pre-incubation for increasing periods of time; for Inhibition of Taspase1-mediated p75MLL cleavage at 1 mM: 1 mM (up to 1 mM)
T2 sequence (Q9H6P5 1-233 limits assumed): T1 sequence (Q9H6P5 1-233 limits assumed)

[2] = target: Recombinant Caspase8 (rCaspase8) (Homo sapiens, UniProt Q14790); assay: Caspase8-BID in vitro cleavage assay (IVTT 35S methionine labeled p22Bid reporter); assay type: biochemical; settings: 1 mM, tertiary screen
[3] = system: SV40-transformed mouse embryonic fibroblasts (MEFs); assay: MTT assay of SV40-transformed MEFs, wild-type versus Taspase1-/-; assay type: cell-based; settings: 2 days, relative cell number
autotoxin = autotoxin (Homo sapiens, UniProt Q13822); settings: cited from earlier work
NCI60 cell lines = settings: NCI DTP database; cited from earlier work

Chain of Recombinant Caspase8 (rCaspase8) (Q14790 217-374 limits assumed, species assumed): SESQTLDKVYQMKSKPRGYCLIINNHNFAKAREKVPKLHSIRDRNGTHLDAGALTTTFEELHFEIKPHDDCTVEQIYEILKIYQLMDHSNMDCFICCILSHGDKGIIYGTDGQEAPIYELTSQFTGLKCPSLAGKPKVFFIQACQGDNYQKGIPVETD

O=C(NNC(=S)Nc1cccc(C(F)(F)F)c1)c1sc2ccccc2c1Cl [BTB 00807]
EC50 (Taspase1): 9.9 µM

S=C(NNC(=S)NC1CC2C=CC1C2)Nc1ccc(Br)c(Cl)c1 (centres unmarked) [CD 02506]
EC50 (Taspase1): 1.5 µM

O=C(CO/N=C/c1ccc(Cl)cc1Cl)NNCCC(=S)Nc1cc(Cl)ccc1Cl [CD 06082]
EC50 (Taspase1): 3.3 µM

Cc1ccc(-c2nc(NS(=O)(=O)c3cccc4nonc34)sc2C)cc1Cl [HTS 01888]
EC50 (Taspase1): 2.2 µM

Cc1ccc(S(=O)(=O)NC(=O)Nc2nc(-c3ccc(C)c(Cl)c3)c(C)s2)cc1 [HTS 06900]
EC50 (Taspase1): 4 µM

CC[C@H](C)[C@H](NC(=O)[C@H](CCCCN)NC(C)=O)C(=O)N[C@@H](CO)C(=O)N[C@@H](CCC(N)=O)C(=O)N[C@@H](CC(C)C)C(=O)N[C@H](C=O)CC(=O)O [ISQLD-aldehyde] (Ac-KISQLD-aldehyde)
Inhibition of Taspase1-mediated p75MLL cleavage (in words) [1]: minimal activity

CC[C@H](C)[C@H](NC(C)=O)C(=O)N[C@@H](CO)C(=O)N[C@@H](CCC(N)=O)C(=O)N[C@@H](CC(C)C)C(=O)N[C@H](/C=C/S(C)(=O)=O)CC(=O)O [ISQLD-vinyl sulfone] (Ac-ISQL-X1; N-terminus and C-terminus assumed)
IC50 [1]: 29.4 µM

O=[As](O)(O)c1ccc(Cc2ccc([As](=O)(O)O)cc2)cc1 [NSC48300, [4-[(4-arsonophenyl)methyl]phenyl]arsonic acid]
Effect of increasing pretreatment time on Taspase1 inhibition [1]: did not enhance the inhibition
Effect of increasing pretreatment time on Taspase1 inhibition ([1]; listed as TASPIN-NSC48300): did not exhibit enhanced inhibition
Inhibition of Taspase1-mediated p75MLL cleavage at 10 μM ([1]; 10 μM): completely inhibited
Inhibition of Taspase1-mediated p75MLL cleavage at 1 mM [1]: inhibited Taspase1
IC50 [1]: ~7.5 µM
Inhibition of Caspase8-mediated p22Bid cleavage [2]: only targets Taspase1; also recorded: not Caspase8
Ki (Taspase1; 100 nM rTaspase1, varying concentrations of FRPR, read-out: KI of Taspase1 inhibition): 4.22 ± 0.46 µM
Mode of Taspase1 inhibition (Taspase1; varying concentrations of FRPR and inhibitor): non-competitive inhibition
Susceptibility of wild-type versus Taspase1-/- SV40-transformed MEFs [3]: more susceptible
Inhibition of autotoxin (autotoxin): inhibit autotoxin
Growth inhibition in the NCI60 screen (NCI60 cell lines): distinct pattern of growth inhibition

Cc1ccc(NC(=S)NNC(=O)Cn2nnc(-c3cccc(Cl)c3Cl)n2)cc1Cl [RJF 02020]
EC50 (Taspase1): 3.9 µM

CC(C)(C)c1cc(C(=O)NNC(=S)Nc2ccccc2)n(Cc2ccc(Cl)cc2Cl)n1 [SPB 08132]
EC50 (Taspase1): 5.9 µM

CC(C)C[C@H](NC(=O)[C@H](Cc1ccccc1)NC(=O)c1cnccn1)B(O)O [bortezomib]
Inhibition of Taspase1-mediated p75MLL cleavage (in words) [1]: no activity

MCA-KISQLDGVDD-DNP ({MCA}-KISQLDGVDD-{DNP}) [FRPR]
Km (Taspase1; rTaspase1 at room temperature, read-out: apparent KM of the reporter substrate): 9.06 ± 2.8 µM

arsenic acid
Inhibition of Taspase1-mediated p75MLL cleavage at 1 mM [1]: no inhibition
